Data: patent US9695155B2, “Herbicidal substituted pyrimidinyloxy benzene compounds” (E. I. DU PONT DE NEMOURS AND COMPANY, priority 2013, dated 2017)

Key:
giant foxtail = test: Test C postemergence; type: in vivo, Setaria faberii; conditions: for Plant response rating (0 to 100), Foxtail, Giant: 16 g ai/ha, 0 is no effect, 100 is complete control; for Foxtail, Giant plant response rating: 31 g ai/ha; for Foxtail, Giant plant response rating / Plant response rating, Foxtail, Giant: scale 0 to 100 (0 no effect, 100 complete control)
In short: (§1)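 Seeds are planted in blended loam soil and sand and treated preemergence, while seedlings in a peat moss/vermiculite medium receive postemergence sprays at 2 to 18 cm height. All plants stay in the greenhouse for 13 to 15 days before visual comparison with controls on a 0–100 scale.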

wheat, winter = test: Test C postemergence; type: in vivo, Triticum aestivum; conditions: for Plant response rating (0 to 100), Wheat: 16 g ai/ha, 0 is no effect, 100 is complete control; for Wheat plant response rating: 31 g ai/ha; for Wheat plant response rating / Plant response rating, Wheat: scale 0 to 100 (0 no effect, 100 complete control)
In short: as §1

barnyardgrass = test: Test A postemergence; type: in vivo, Echinochloa crus-galli; conditions: 0 to 100 scale where 0 is no effect and 100 is complete control; for Barnyardgrass plant response rating: 125 g ai/ha; for Plant response rating, Barnyardgrass: 500 g ai/ha
In short: (§2)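 Visual 0–100 rating (100 = complete control) taken about 10 d post-treatment relative to untreated checks. Preemergence: directed soil spray on sown loam/sand pots. Postemergence: seedlings 2–10 cm, 1–2 leaf. Non-phytotoxic solvent formulation with surfactant.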

corn [1] = test: Test A postemergence; type: in vivo, Zea mays; conditions: 0 to 100 scale where 0 is no effect and 100 is complete control; for Corn plant response rating: 125 g ai/ha; for Plant response rating, Corn: 500 g ai/ha
In short: as §2

velvetleaf = test: Test A postemergence; type: in vivo, Abutilon theophrasti; conditions: 0 to 100 scale where 0 is no effect and 100 is complete control; for Velvetleaf plant response rating: 125 g ai/ha; for Plant response rating, Velvetleaf: 500 g ai/ha
In short: as §2

johnsongrass = test: Test C postemergence; type: in vivo, Sorghum halepense; conditions: for Plant response rating (0 to 100), Johnsongrass: 16 g ai/ha, 0 is no effect, 100 is complete control; for Johnsongrass plant response rating: 31 g ai/ha; for Johnsongrass plant response rating / Plant response rating, Johnsongrass: scale 0 to 100 (0 no effect, 100 complete control)
In short: as §1

large (Lg) crabgrass [2] = test: Test A preemergence; type: in vivo, Digitaria sanguinalis; conditions: for Crabgrass, Large plant response rating (0 to 100 scale): 125 g ai/ha; for Crabgrass, Large plant response rating: 500 g ai/ha, 0 to 100 scale where 0 is no effect and 100 is complete control
In short: as §2

corn [3] = test: Test C postemergence; type: in vivo, Zea mays; conditions: for Plant response rating (0 to 100), Corn: 16 g ai/ha, 0 is no effect, 100 is complete control; for Corn plant response rating: 31 g ai/ha; for Corn plant response rating / Plant response rating, Corn: scale 0 to 100 (0 no effect, 100 complete control)
In short: as §1

large (Lg) crabgrass [4] = test: Test C postemergence; type: in vivo, Digitaria sanguinalis; conditions: for Plant response rating (0 to 100), Crabgrass, Large: 16 g ai/ha, 0 is no effect, 100 is complete control; for Crabgrass, Large plant response rating: 31 g ai/ha; for Crabgrass, Large plant response rating / Plant response rating, Crabgrass, Large: scale 0 to 100 (0 no effect, 100 complete control)
In short: as §1

yellow nutsedge = test: Test C postemergence; type: in vivo, Cyperus esculentus; conditions: for Plant response rating (0 to 100), Nutsedge, Yellow: 16 g ai/ha, 0 is no effect, 100 is complete control; for Nutsedge, Yellow plant response rating: 31 g ai/ha; for Nutsedge, Yellow plant response rating / Plant response rating, Nutsedge, Yellow: scale 0 to 100 (0 no effect, 100 complete control)
In short: as §1

[5] = postemergence, visual rating, 13 to 15 days
[6] = 125 g ai/ha, postemergence, visual rating
[7] = Postemergence, 62 g ai/ha, 13 to 15 days

SMILES | Plant response rating (0 to 100), Foxtail, Giant (giant foxtail; postemergence) | Foxtail, Giant plant response rating (giant foxtail; [5]) | Plant response rating, Foxtail, Giant (giant foxtail; [6]) | Plant response rating (0 to 100), Wheat (wheat, winter; postemergence) | Wheat plant response rating (wheat, winter; [5]) | Plant response rating, Wheat (wheat, winter; [6]) | Barnyardgrass plant response rating (barnyardgrass) | Plant response rating, Barnyardgrass (barnyardgrass) | Corn plant response rating (corn [1]) | Plant response rating, Corn (corn [1]) | Velvetleaf plant response rating (velvetleaf) | Plant response rating, Velvetleaf (velvetleaf) | Plant response rating (0 to 100), Johnsongrass (johnsongrass; postemergence) | Johnsongrass plant response rating (johnsongrass; [5]) | Plant response rating, Johnsongrass (johnsongrass; [6]) | Crabgrass, Large plant response rating (0 to 100 scale) (large (Lg) crabgrass [2]) | Crabgrass, Large plant response rating (large (Lg) crabgrass [2]) | Plant response rating (0 to 100), Corn (corn [3]; postemergence) | Corn plant response rating (corn [3]; [5]) | Plant response rating, Corn (corn [3]; [6]) | other results
Clc1cnc(Oc2cccc(Cl)c2-n2cc(I)cn2)nc1 [Compound 181] | 10 | 10 | 10 | 0 | 0 | 5 | 60 | 90 | 40 | 40 | 100 | 100 | 0 | 5 | 20 | 100 | 100 | 5 | 5 | 5 | Plant response rating, Foxtail, Giant (giant foxtail; Postemergence, 62 g ai/ha): 25; Plant response rating, Wheat (wheat, winter; Postemergence, 62 g ai/ha): 0; Plant response rating, Johnsongrass (johnsongrass; Postemergence, 62 g ai/ha): 5; Plant response rating, Corn (corn [3]; Postemergence, 62 g ai/ha): 5; Plant response rating (0 to 100), Crabgrass, Large (large (Lg) crabgrass [4]; postemergence): 5; Crabgrass, Large plant response rating (large (Lg) crabgrass [4]; [5]): 5; Plant response rating, Crabgrass, Large (large (Lg) crabgrass [4]; [6]): 10; Plant response rating, Crabgrass, Large (large (Lg) crabgrass [4]; Postemergence, 62 g ai/ha): 10; Plant response rating (0 to 100), Nutsedge, Yellow (yellow nutsedge; postemergence): 0; Nutsedge, Yellow plant response rating (yellow nutsedge; [5]): 0; Plant response rating, Nutsedge, Yellow (yellow nutsedge; Postemergence, 62 g ai/ha): 5
FC(F)(F)c1cnn(-c2c(Br)cccc2Oc2ncc(Cl)cn2)c1 [Compound 191] | 10 | 10 | 15 | 0 | 0 | 0 | 50 | 90 | 20 | 40 | 90 | 100 | 30 | 10 | 10 | 100 | 100 | 5 | 5 | 10 | Plant response rating, Foxtail, Giant (giant foxtail; Postemergence, 62 g ai/ha): 10; Plant response rating, Wheat (wheat, winter; Postemergence, 62 g ai/ha): 0; Plant response rating, Johnsongrass (johnsongrass; Postemergence, 62 g ai/ha): 15; Plant response rating, Corn (corn [3]; Postemergence, 62 g ai/ha): 10; Plant response rating (0 to 100), Crabgrass, Large (large (Lg) crabgrass [4]; postemergence): 5; Crabgrass, Large plant response rating (large (Lg) crabgrass [4]; [5]): 5; Plant response rating, Crabgrass, Large (large (Lg) crabgrass [4]; [6]): 10; Plant response rating, Crabgrass, Large (large (Lg) crabgrass [4]; Postemergence, 62 g ai/ha): 5; Plant response rating (0 to 100), Nutsedge, Yellow (yellow nutsedge; postemergence): 0; Nutsedge, Yellow plant response rating (yellow nutsedge; [5]): 0; Plant response rating, Nutsedge, Yellow (yellow nutsedge; [6]): 5; Plant response rating, Nutsedge, Yellow (yellow nutsedge; Postemergence, 62 g ai/ha): 5
FC(F)c1cnn(-c2c(Cl)cccc2Oc2ncc(Cl)cn2)c1 [Compound 192] | 5 | 5 | 10 | 0 | 0 | 5 | 60 | 90 | 10 | 60 | 90 | 100 | 5 | 10 | 10 | 100 | 100 | 0 | 5 | 5 | Plant response rating, Foxtail, Giant (giant foxtail; [7]): 5; Plant response rating, Wheat (wheat, winter; [7]): 5; Plant response rating, Johnsongrass (johnsongrass; [7]): 5; Plant response rating, Corn (corn [3]; [7]): 5; Plant response rating (0 to 100), Crabgrass, Large (large (Lg) crabgrass [4]; postemergence): 5; Crabgrass, Large plant response rating (large (Lg) crabgrass [4]; [5]): 10; Plant response rating, Crabgrass, Large (large (Lg) crabgrass [4]; [6]): 5; Plant response rating, Crabgrass, Large (large (Lg) crabgrass [4]; [7]): 5; Plant response rating (0 to 100), Nutsedge, Yellow (yellow nutsedge; postemergence): 5; Nutsedge, Yellow plant response rating (yellow nutsedge; [5]): 5; Plant response rating, Nutsedge, Yellow (yellow nutsedge; [6]): 40; Plant response rating, Nutsedge, Yellow (yellow nutsedge; [7]): 0
